Measured values taken from patent publication US8906904B2, “Alkoxy pyrazoles as soluble guanylate cyclase activators” (Boehringer Ingelheim International GmbH, priority 2012, dated 2014).
In brackets after ≈: the same amount, converted by molar mass.

Test: Assessment of solubility (McIlvaine buffers, 24 h shake, UPLC-UV)
Type: physicochemical
Settings: kinetic from dmso stock
Protocol: Solubility is measured by the following method.
100 uL, 10 mM DMSO stock solution of each compound is prepared in a 96 well plate format. The experiment is done in single determination at 3 pH values (2.2, 4.5 and 6.8). For each pH and one reference, 40 uL of each compound is needed.
McIlvaine pH 2.2: To 2.076 g citric acid monohydrate and 0.043 g Na2HPO4×2H2O add 100 ml deionized water
McIlvaine pH 4.5: To 1.166 g citric acid monohydrate and 1.585 g Na2HPO4×2H2O add 100 ml deionized water
McIlvaine pH 6.8: To 0.476 g citric acid monohydrate and 2.753 g Na2HPO4×2H2O add 100 ml deionized water
With a suitable liquid handling device (Multipette® or a liquid handler) 390 uL of each buffer solution and 10 uL of compound is added to each well of a 96 deep well plate. The plates are covered firmly and shaken for 24 h on an over head shaker (at 54 RPM) at room temperature. The DMSO content in the final buffer is 2.5% v/v.
After 24 h the plates are centrifuged to remove droplets on the lid before opening (for ˜5 min at 2500 RPM).
The filtration is done under vacuum with Millipore 96 well filter plate. Filtrate is collected in a deep well plate and transferred to a suitable plate for UPLC analysis.
The reference plate is prepared by adding 10 uL of compound to 390 uL of 50:50 acetonitrile/water in a 96 deep well plate and transferred to a suitable plate for UPLC analysis. Wells are checked visually for precipitation, any presence noted under comments in reported results.
The samples are measured with UPLC-UV using the chromatographic method described below.
Waters Empower®2 software is used for generating Sample Sets (according to the plate layout), Sample Set Methods and Instrument Methods.
One Sample Set comprises the methods for three 96 well plates (one reference plate and two sample plates, and includes one Sample Set Method and one Instrument Method).
3. Data Processing and Analysis
The UV chromatograms collected at 254 nm are integrated and processed.
It is assumed that the compound is completely dissolved in the reference solution (50:50 acetonitrile/water)

Row | SMILES | solubility at 24 h (pH 2.2, aqueous buffer) | solubility at 24 h (pH 4.5, aqueous buffer) | solubility at 24 h (pH 6.8, aqueous buffer)
1 | COc1c(C(=O)O)cnn1-c1cccc(-c2cccc(C)c2OCc2ccc3c(c2C)CCN(S(C)(=O)=O)C3)n1 [Compound 160] | < 0.1 µg/mL | 0.93 µg/mL (≈ 1.65 µM) | 73 µg/mL (≈ 130 µM)
2 | CCOc1c(C(=O)O)cnn1-c1cccc(-c2cccc(C)c2OCc2cc(C)c3c(c2)CCN(C2COC2)C3)n1 [Compound 174] | 99 µg/mL (≈ 178 µM) | 71 µg/mL (≈ 128 µM) | 91 µg/mL (≈ 164 µM)
3 | Cc1cc(COc2c(C)cccc2-c2cccc(-n3ncc(C(=O)O)c3OC(C)C)n2)cc2c1CN(C1CCOCC1)CC2 [Compound 161] | 110 µg/mL (≈ 184 µM) | 91 µg/mL (≈ 152 µM) | 97 µg/mL (≈ 163 µM)
4 | COc1c(C(=O)O)cnn1-c1cccc(-c2cccc(C)c2OCc2ccc3c(c2C)CCN([C@@H]2CCOC2)C3)n1 [Compound 106] | 88 µg/mL (≈ 159 µM) | 69 µg/mL (≈ 124 µM) | 73 µg/mL (≈ 132 µM)
5 | Cc1cccc(-c2cccc(-n3ncc(C(=O)O)c3OC(C)C)n2)c1OCc1ccc2c(c1C)CCN([C@H]1CCCOC1)C2 [Compound 117] | 102 µg/mL (≈ 171 µM) | 82 µg/mL (≈ 137 µM) | 85 µg/mL (≈ 142 µM)
6 | COc1c(C(=O)O)cnn1-c1cccc(-c2cccc(C)c2OCc2cc(C)c3c(c2)CCN(C2CCOCC2)C3)n1 [Compound 171] | 120 µg/mL (≈ 211 µM) | 99 µg/mL (≈ 174 µM) | 98 µg/mL (≈ 172 µM)
7 | COc1c(C(=O)O)cnn1-c1cccc(-c2cccc(C)c2OCc2cc(C)c3c(c2C)CCN(C2COC2)C3)n1 [Compound 178] | 100 µg/mL (≈ 180 µM) | 72 µg/mL (≈ 130 µM) | 86 µg/mL (≈ 155 µM)
8 | CCOc1c(C(=O)O)cnn1-c1cccc(-c2cccc(C)c2OCc2ccc3c(c2C)CCN(C2COC2)CC3)n1 [Compound 175] | 110 µg/mL (≈ 193 µM) | 80 µg/mL (≈ 141 µM) | 85 µg/mL (≈ 149 µM)
9 | COc1c(C(=O)O)cnn1-c1cccc(-c2cccc(C)c2OCc2ccc3c(c2C)CCN(C[C@H]2COCCO2)C3)n1 [Compound 142] | 120 µg/mL (≈ 205 µM) | 87 µg/mL (≈ 149 µM) | 93 µg/mL (≈ 159 µM)
10 | COc1c(C(=O)O)cnn1-c1cccc(-c2cccc(C)c2OCc2ccc3c(c2C(F)(F)F)CCN(C2CCOCC2)C3)n1 [Compound 166] | 110 µg/mL (≈ 177 µM) | 51 µg/mL (≈ 81.9 µM) | 64 µg/mL (≈ 103 µM)
11 | COc1c(C(=O)O)cnn1-c1cccc(-c2cccc(C)c2OCc2ccc3c(c2C)CCN([C@H]2CCCOC2)C3)n1 [Compound 141] | 130 µg/mL (≈ 229 µM) | 110 µg/mL (≈ 193 µM) | 110 µg/mL (≈ 193 µM)
12 | COc1c(C(=O)O)cnn1-c1cccc(-c2cccc(C)c2OCc2ccc3c(c2F)CCN(C2COC2)C3)n1 [Compound 177] | 110 µg/mL (≈ 202 µM) | 58 µg/mL (≈ 107 µM) | 86 µg/mL (≈ 158 µM)
13 | CCCOc1c(C(=O)O)cnn1-c1cccc(-c2cccc(C)c2OCc2ccc3c(c2C)CCN(C2CCOCC2)C3)n1 [Compound 133] | 120 µg/mL (≈ 201 µM) | 99 µg/mL (≈ 166 µM) | 100 µg/mL (≈ 168 µM)
14 | CC[C@H](C)Oc1c(C(=O)O)cnn1-c1cccc(-c2cccc(C)c2OCc2ccc3c(c2C)CCN(C2CCOC2)C3)n1 (stereo partly drawn) [Compound 137] | 110 µg/mL (≈ 184 µM) | 98 µg/mL (≈ 164 µM) | 110 µg/mL (≈ 184 µM)
15 | COc1c(C(=O)O)cnn1-c1cccc(-c2cc(C)ccc2OCc2ccc3c(c2C)CCN(C2CCOCC2)C3)n1 [Compound 124] | 100 µg/mL (≈ 176 µM) | 8.6 µg/mL (≈ 15.1 µM) | 44 µg/mL (≈ 77.4 µM)
16 | Cc1cccc(-c2cccc(-n3ncc(C(=O)O)c3OC(C)C)n2)c1OCc1ccc2c(c1)CCN([C@H]1CCOC1)C2 [Compound 111] | 87 µg/mL (≈ 153 µM) | 69 µg/mL (≈ 121 µM) | 75 µg/mL (≈ 132 µM)
17 | COc1c(C(=O)O)cnn1-c1cccc(-c2cccc(C)c2OCc2ccc3c(c2)CCCN(C2CCOCC2)C3)n1 [Compound 100] | 110 µg/mL (≈ 193 µM) | 88 µg/mL (≈ 155 µM) | 97 µg/mL (≈ 171 µM)

Row | SMILES | solubility at 24 h (pH 2.2, aqueous buffer) | solubility at 24 h (pH 4.5, aqueous buffer) | solubility at 24 h (pH 6.8, aqueous buffer)
18 | COc1c(C(=O)O)cnn1-c1cccc(-c2ccc(C)cc2OCc2ccc3c(c2)CCN(C2CCOCC2)C3)n1 [Compound 98] | 150 µg/mL (≈ 270 µM) | 110 µg/mL (≈ 198 µM) | 99 µg/mL (≈ 178 µM)
19 | CCOc1c(C(=O)O)cnn1-c1cccc(-c2cccc(C)c2OCc2ccc3c(c2C)CCN(C2COC2)C3)n1 [Compound 164] | 100 µg/mL (≈ 180 µM) | 72 µg/mL (≈ 130 µM) | 93 µg/mL (≈ 168 µM)
20 | CC[C@H](C)Oc1c(C(=O)O)cnn1-c1cccc(-c2cccc(C)c2OCc2ccc3c(c2C)CCN(C2CCOCC2)C3)n1 [Compound 136] | 120 µg/mL (≈ 196 µM) | 100 µg/mL (≈ 164 µM) | 110 µg/mL (≈ 180 µM)
21 | COc1c(C(=O)O)cnn1-c1cccc(-c2cccc(C)c2OCc2ccc3c(c2)CCN(C2COC2)C3)n1 [Compound 8] | 110 µg/mL (≈ 209 µM) | 82 µg/mL (≈ 156 µM) | 98 µg/mL (≈ 186 µM)
22 | CCOc1c(C(=O)O)cnn1-c1cccc(-c2cccc(C)c2OCc2ccc3c(c2C(F)(F)F)CCN(C2CCOCC2)C3)n1 [Compound 165] | 120 µg/mL (≈ 188 µM) | 58 µg/mL (≈ 91.1 µM) | 39 µg/mL (≈ 61.3 µM)
23 | CCOc1c(C(=O)O)cnn1-c1cccc(-c2cccc(C)c2OCc2ccc3c(c2C)CCN(C2CCOCC2)CC3)n1 [Compound 162] | 100 µg/mL (≈ 168 µM) | 83 µg/mL (≈ 139 µM) | 82 µg/mL (≈ 137 µM)
24 | COc1c(C(=O)O)cnn1-c1cccc(-c2cccc(C)c2OCc2ccc3c(c2)CCN(CC(C)(C)C)C3)n1 [Compound 14] | 110 µg/mL (≈ 203 µM) | 82 µg/mL (≈ 152 µM) | 76 µg/mL (≈ 141 µM)
25 | CC(C)Oc1c(C(=O)O)cnn1-c1cccc(-c2ccccc2OCc2ccc3c(c2)CCN(C2CCOCC2)C3)n1 [Compound 144] | 110 µg/mL (≈ 193 µM) | 89 µg/mL (≈ 157 µM) | 93 µg/mL (≈ 164 µM)
26 | CCOc1c(C(=O)O)cnn1-c1cccc(-c2cccc(C)c2OCc2ccc3c(c2C)CCN(CC2CCCOC2)C3)n1 (stereo not drawn) [Compound 146] | 100 µg/mL (≈ 168 µM) | 88 µg/mL (≈ 147 µM) | 79 µg/mL (≈ 132 µM)
27 | COc1c(C(=O)O)cnn1-c1cccc(-c2cccc(Cl)c2OCc2ccc3c(c2)CCN(C2COC2)C3)n1 [Compound 7] | 110 µg/mL (≈ 201 µM) | 77 µg/mL (≈ 141 µM) | 91 µg/mL (≈ 166 µM)
28 | Cc1cccc(-c2cccc(-n3ncc(C(=O)O)c3OC(C)C)n2)c1OCc1ccc2c(c1)CCN([C@H]1CCCOC1)C2 [Compound 115] | 89 µg/mL (≈ 153 µM) | 71 µg/mL (≈ 122 µM) | 43 µg/mL (≈ 73.8 µM)
29 | CCOc1c(C(=O)O)cnn1-c1cccc(-c2cccc(C)c2OCc2ccc3c(c2C)CCN(C[C@@H]2CCCOC2)C3)n1 [Compound 152] | 97 µg/mL (≈ 163 µM) | 74 µg/mL (≈ 124 µM) | 74 µg/mL (≈ 124 µM)
30 | COc1c(C(=O)O)cnn1-c1cccc(-c2cccc(C)c2OCc2ccc3c(c2C)CCN(C[C@@H]2COCCO2)C3)n1 [Compound 139] | 130 µg/mL (≈ 222 µM) | 110 µg/mL (≈ 188 µM) | 120 µg/mL (≈ 205 µM)
31 | COc1c(C(=O)O)cnn1-c1cccc(-c2cccc(C)c2OCc2cc3c(cc2C)CN(C2CCOCC2)C3)n1 [Compound 143] | 160 µg/mL (≈ 288 µM) | 150 µg/mL (≈ 270 µM) | 160 µg/mL (≈ 288 µM)
32 | CCOc1c(C(=O)O)cnn1-c1cccc(-c2cccc(C)c2OCc2ccc3c(c2C)CCN(C[C@H]2COC(C)(C)O2)C3)n1 [Compound 179] | 43 µg/mL (≈ 70.2 µM) | 92 µg/mL (≈ 150 µM) | 93 µg/mL (≈ 152 µM)
33 | COCCOc1c(C(=O)O)cnn1-c1cccc(-c2cccc(C)c2OCc2ccc3c(c2C)CCN(C2CCOCC2)C3)n1 [Compound 151] | 110 µg/mL (≈ 180 µM) | 98 µg/mL (≈ 160 µM) | 85 µg/mL (≈ 139 µM)
